Literature values, collected in patent US20250312371A1, “CROSS-LINKED POLYMERIC CHELATORS COMPOSITIONS AND USE THEREOF” (THE UNIVERSITY OF KANSAS, priority 2021, published 2025).

SMILES: O=C(N[C@H]1COC(=O)[C@@H](NC(=O)c2cccc(O)c2O)COC(=O)[C@@H](NC(=O)c2cccc(O)c2O)COC1=O)c1cccc(O)c1O [Enterobactin]
- relative iron binding constant (Fe(III)): 35.5
- Log K (iron chelation): 52
